The results in this text go back to patent publication US9447136B2, “Semisynthetic derivatives of Nystatin A1” (BLIRT S.A., priority 2012, dated 2016).

Read-outs that look alike come from different tables or passages of the source.

For series [1], the system named is Candida glabrata DSM 11226. The experiment in a line: Antifungal activity in vitro, serial dilution in RPMI 1640. It counts as cell-based. Particulars: Table 2A; RPMI 1640, pH 7.0. On the procedure:
(§1) For the determination of antifungal activity in vitro we used method of serial dilution in buffered medium RPMI 1640, pH 7.0, in a 96-wells microplates, according to the standard procedure (National Committee for Clinical Laboratory Standards. Reference method for broth dilution antifungal susceptibility testing of yeast, approved standard, 2nd ed. M27-A2 vol. 22 Wayne, Pa., 2002). The optical density of cells suspension was measured using a microplates reader (Victor^3, Perkin-Elmer) at the wavelength λ=531 nm (A531). On the basis of obtained results the diagrams of relation between A531 values and concentration of examined compound were made. From these graphs, the IC50 values were read, which were the interpolated concentrations of a tested compound, at which the A531 value was exactly 50% of the A531 value for the control sample. Moreover, MIC values, that are the lowest concentration of tested compound at which the A531 value were at most 20% of the A531 value measured for the control sample.

The next series relates to Candida krusei DSM 6128. The series is described as above. Particulars: Table 2A; RPMI 1640, pH 7.0. It counts as cell-based. On the procedure:
as §1

Series [2] concerns Saccharomyces cerevisiae ATCC 9763. Described as above. It counts as cell-based. The settings on record: Table 2A; RPMI 1640, pH 7.0; A531 at most 20% of control. The method, then: as §1
In series [3] the test system is Candida tropicalis KKP 334. The series is described as above. It counts as cell-based. The settings on record: Table 2A; RPMI 1640, pH 7.0. On the procedure:
as §1

Series [4] has as its system Candida albicans ATCC 10231. Described as above. It counts as cell-based. Particulars: Table 2A, RPMI 1640, pH 7.0; for Antifungal activity Candida albicans ATCC 10231 IC50: A531 50% of control; for Antifungal activity Candida albicans ATCC 10231 MIC: A531 at most 20% of control. On the procedure: as §1
The test system of another series is Human erythrocytes. The experiment in a line: Hemotoxicity (hemolytic activity). The method, then:
The hemotoxicity determination were carried out by the serial dilutions method, according to the procedure described earlier (Ślisz, M., et al., E., J Antibiot 57: 669-678 (2004)). Human erythrocytes were suspensed in the solution of saline to obtain a cell density of suspension 2×10^7/ml. Suitable amounts of diluted solutions of compounds were added to the cell suspension in tubes and were incubated at 37° C. for 30 minutes and then centrifuged (1700×g, 10 min, 4° C.). The concentration of hemoglobin in supernatant after centrifugation of erythrocytes suspension were determined by measuring the absorbance at wavelength λ=540 nm (A540). The maximum level of hemolysis was obtained after incubation of cells suspension in the presence of 0.1% Tritone X-100 (control sample). […] From these graphs, the EH50 values were read which are the interpolated concentrations of compound, for which the A540 value is exactly 50% of the A540 value measured for the control sample.

For the molecule `CC1OC(O[C@H]2/C=C/C=C/C=C/C=C/CC/C=C/C=C/[C@H](C)[C@@H](O)[C@@H](C)[C@H](C)OC(=O)C[C@H](O)C[C@H](O)C[C@H](O)CC[C@@H](O)[C@H](O)CC3(O)C[C@H](O)[C@@H](C(=O)O)[C@H](C2)O3)C(O)C(NC(=O)[C@@H](N)CCC(=O)OC(C)(C)C)C1O` (stereo partly drawn) [Compound N35, N-L-(O-tert-butyl)glutamylnystatin A1], in series [1], the “Antifungal activity Candida glabrata DSM 11226 MIC” value worked out at 16 µg/mL. In addition, in the series with Candida krusei DSM 6128, the “Antifungal activity Candida krusei DSM 6128 MIC” value turned out to be 16 µg/mL. Also, the “Antifungal activity Saccharomyces cerevisiae ATCC 9763 MIC” value in series [2] worked out at 8 µg/mL. Also, the “Antifungal activity Candida tropicalis KKP 334 MIC” value in series [3] was 16 µg/mL. Besides, in series [4], the “Antifungal activity Candida albicans ATCC 10231 IC50” value turned out to be 6.36 µg/mL and the “Antifungal activity Candida albicans ATCC 10231 MIC” value came to 8 µg/mL.
For the molecule `CC1OC(O[C@H]2/C=C/C=C/C=C/C=C/CC/C=C/C=C/[C@H](C)[C@@H](O)[C@@H](C)[C@H](C)OC(=O)C[C@H](O)C[C@H](O)C[C@H](O)CC[C@@H](O)[C@H](O)CC3(O)C[C@H](O)[C@@H](C(=O)O)[C@H](C2)O3)C(O)C(NC2CC(=O)N(c3ccc(Br)cc3)C2=O)C1O` (stereo partly shown) [Compound N2, N—(N′-4-bromophenylsuccinimidyl)nystatin A1], the “Antifungal activity Candida glabrata DSM 11226 MIC” value in series [1] is 16 µg/mL. For the same molecule, the “Antifungal activity Candida krusei DSM 6128 MIC” value in the series with Candida krusei DSM 6128 was 16 µg/mL. Moreover, the “Antifungal activity Saccharomyces cerevisiae ATCC 9763 MIC” value in series [2] worked out at 8 µg/mL. Moreover, the “Antifungal activity Candida tropicalis KKP 334 MIC” value in series [3] stood at 8 µg/mL. Further, in series [4], the “Antifungal activity Candida albicans ATCC 10231 IC50” value is 4.99 µg/mL and the “Antifungal activity Candida albicans ATCC 10231 MIC” value came to 8 µg/mL.
Regarding `CC1C=CC=CCCC=CC=CC=CC=CC(OC2OC(C)C(O)C(NC(=O)C(N)COC(C)(C)C)C2O)CC2OC(O)(CC(O)CC(O)C(O)CCC(O)CC(O)CC(=O)OC(C)C(C)C1O)CC(O)C2C(=O)O` [Compound N36, N-L-(O-tert-butyl)serylnystatin A1], in the series on Human erythrocytes, the “% of hemolysis at the concentration 300 μg ml^−1” value was 8.24% and the EH10 was over 300 µg/mL.
For the molecule “N—(N′-cyclohexylsuccinimidyl)nystatin A1 [Compound N5]”, in series [1], the “Antifungal activity Candida glabrata DSM 11226 MIC” value was 16 µg/mL. Also, the “Antifungal activity Candida krusei DSM 6128 MIC” value with Candida krusei DSM 6128 was 16 µg/mL. For the same molecule, the “Antifungal activity Saccharomyces cerevisiae ATCC 9763 MIC” value in series [2] worked out at 8 µg/mL. In addition, the “Antifungal activity Candida tropicalis KKP 334 MIC” value in series [3] was found to be 8 µg/mL. Besides, in series [4], the “Antifungal activity Candida albicans ATCC 10231 IC50” value stood at 5.77 µg/mL and the “Antifungal activity Candida albicans ATCC 10231 MIC” value was 8 µg/mL.
Take `C[C@@H]1[C@H](O)[C@@H](C)/C=C/C=C/CC/C=C/C=C/C=C/C=C/[C@H](O[C@@H]2O[C@H](C)[C@@H](O)[C@H](NC(=O)[C@H](N)COC(C)(C)C)[C@@H]2O)C[C@@H]2O[C@](O)(C[C@@H](O)C[C@@H](O)[C@H](O)CC[C@@H](O)C[C@@H](O)CC(=O)O[C@H]1C)C[C@H](O)[C@H]2C(=O)O` [Compound N38, N-D-(O-tert-butyl)serylnystatin A1]: the “Antifungal activity Candida glabrata DSM 11226 MIC” value in series [1] was found to be 16 µg/mL. Also, the “Antifungal activity Candida krusei DSM 6128 MIC” value in the series on Candida krusei DSM 6128 amounted to 16 µg/mL. For the same molecule, the “Antifungal activity Saccharomyces cerevisiae ATCC 9763 MIC” value in series [2] is 8 µg/mL. For the same molecule, the “Antifungal activity Candida tropicalis KKP 334 MIC” value in series [3] was 8 µg/mL. In series [4], the “Antifungal activity Candida albicans ATCC 10231 IC50” value is 5.95 µg/mL and the “Antifungal activity Candida albicans ATCC 10231 MIC” value was 8 µg/mL.
`CNC(C)(C)C(=O)NC1C(O)C(C)OC(O[C@H]2/C=C/C=C/C=C/C=C/CC/C=C/C=C/[C@H](C)[C@@H](O)[C@@H](C)[C@H](C)OC(=O)C[C@H](O)C[C@H](O)C[C@H](O)CC[C@@H](O)[C@H](O)CC3(O)C[C@H](O)[C@@H](C(=O)O)[C@H](C2)O3)C1O` (stereo partly shown) [Compound N43, N-[2-(N-methylamino)-2-methylpropan]nystatin A1] came in with an EH10 in the series with Human erythrocytes (human erythrocytes, concentration causing 10% of hemolysis) of 283.84 µg/mL. Also, the “Antifungal activity Candida glabrata DSM 11226 MIC” value in series [1] was found to be 8 µg/mL. Further, the “Antifungal activity Candida krusei DSM 6128 MIC” value with Candida krusei DSM 6128 was found to be 16 µg/mL. Besides, the “Antifungal activity Saccharomyces cerevisiae ATCC 9763 MIC” value in series [2] was found to be 8 µg/mL. For the same molecule, in series [3], the “Antifungal activity Candida tropicalis KKP 334 MIC” value amounted to 8 µg/mL. Also, in series [4], the “Antifungal activity Candida albicans ATCC 10231 IC50” value turned out to be 5.46 µg/mL and the “Antifungal activity Candida albicans ATCC 10231 MIC” value was determined as 8 µg/mL.
Turning to `CC1OC(O[C@H]2/C=C/C=C/C=C/C=C/CC/C=C/C=C/[C@H](C)[C@@H](O)[C@@H](C)[C@H](C)OC(=O)C[C@H](O)C[C@H](O)C[C@H](O)CC[C@@H](O)[C@H](O)CC3(O)C[C@H](O)[C@@H](C(=O)O)[C@H](C2)O3)C(O)C(NC(=O)[C@H](N)Cc2cccnc2)C1O` (stereo partly drawn) [Compound N42, N-D-β-(pyridin-3-yl)alanylnystatin A1], the “Antifungal activity Candida glabrata DSM 11226 MIC” value in series [1] was 32 µg/mL. Also, in the series on Candida krusei DSM 6128, the “Antifungal activity Candida krusei DSM 6128 MIC” value was found to be 32 µg/mL. In addition, the “Antifungal activity Saccharomyces cerevisiae ATCC 9763 MIC” value in series [2] was determined as 8 µg/mL. Also, in series [3], the “Antifungal activity Candida tropicalis KKP 334 MIC” value is 16 µg/mL. Besides, in series [4], the “Antifungal activity Candida albicans ATCC 10231 IC50” value is 10.54 µg/mL and the “Antifungal activity Candida albicans ATCC 10231 MIC” value amounted to 16 µg/mL.
On to `CC1OC(O[C@H]2/C=C/C=C/C=C/C=C/CC/C=C/C=C/[C@H](C)[C@@H](O)[C@@H](C)[C@H](C)OC(=O)C[C@H](O)C[C@H](O)C[C@H](O)CC[C@@H](O)[C@H](O)CC3(O)C[C@H](O)[C@@H](C(=O)O)[C@H](C2)O3)C(O)C(NC2CC(=O)N(Cc3ccccc3)C2=O)C1O` (stereo partly shown) [Compound N1, N—(N′-benzylsuccinimidyl)nystatin A1], for which the “Antifungal activity Candida glabrata DSM 11226 MIC” value in series [1] stood at 16 µg/mL. Also, the “Antifungal activity Candida krusei DSM 6128 MIC” value with Candida krusei DSM 6128 worked out at 32 µg/mL. Besides, the “Antifungal activity Saccharomyces cerevisiae ATCC 9763 MIC” value in series [2] was 8 µg/mL. The “Antifungal activity Candida tropicalis KKP 334 MIC” value in series [3] came out at 8 µg/mL. In addition, in series [4], the “Antifungal activity Candida albicans ATCC 10231 IC50” value was determined as 5.36 µg/mL and the “Antifungal activity Candida albicans ATCC 10231 MIC” value stood at 8 µg/mL.
Take `CCCN(CC1(O)OCC(O)C(O)C1O)C1C(O)C(C)OC(OC2C=CC=CC=CC=CCCC=CC=CC(C)C(O)C(C)C(C)OC(=O)CC(O)CC(O)CC(O)CCC(O)C(O)CC3(O)CC(O)C(C(=O)O)C(C2)O3)C1O` (stereo not shown) [Compound N27, N-fructosyl-N-n-propylnystatin A1]: in the series on Human erythrocytes, the “% of hemolysis at the concentration 300 μg ml^−1” value is 7.34% and the EH10 is over 300 µg/mL.
Consider `Cc1cc(C)c(N2C(=O)CC(N[C@@H]3[C@H](O)[C@H](O[C@H]4/C=C/C=C/C=C/C=C/CC/C=C/C=C/[C@H](C)[C@@H](O)[C@@H](C)[C@H](C)OC(=O)C[C@H](O)C[C@H](O)CC[C@@H](O)[C@H](O)C[C@H](O)C[C@]5(O)C[C@H](O)[C@@H](C(=O)O)[C@H](C4)O5)O[C@H](C)[C@H]3O)C2=O)c(C)c1` (stereo partly shown) [Compound N3, N—(N′-2,4,6-trimethylphenylsuccinimidyl)nystatin A1], for which the “Antifungal activity Candida glabrata DSM 11226 MIC” value in series [1] came out at 32 µg/mL. Besides, the “Antifungal activity Saccharomyces cerevisiae ATCC 9763 MIC” value in series [2] was 8 µg/mL. Moreover, the “Antifungal activity Candida tropicalis KKP 334 MIC” value in series [3] amounted to 16 µg/mL. Moreover, in series [4], the “Antifungal activity Candida albicans ATCC 10231 IC50” value turned out to be 11.76 µg/mL and the “Antifungal activity Candida albicans ATCC 10231 MIC” value was 16 µg/mL.
For `Cc1cccc(C)c1N1C(=O)CC(NC2C(O)C(C)OC(O[C@H]3/C=C/C=C/C=C/C=C/CC/C=C/C=C/[C@H](C)[C@@H](O)[C@@H](C)[C@H](C)OC(=O)C[C@H](O)C[C@H](O)C[C@H](O)CC[C@@H](O)[C@H](O)CC4(O)C[C@H](O)[C@@H](C(=O)O)[C@H](C3)O4)C2O)C1=O` (stereo partly shown) [Compound N4, N—(N′-2,6-dimethyl-phenylsuccinimidyl)nystatin A1], the “Antifungal activity Candida glabrata DSM 11226 MIC” value in series [1] was determined as 16 µg/mL. In the series on Candida krusei DSM 6128, the “Antifungal activity Candida krusei DSM 6128 MIC” value came out at 16 µg/mL. The “Antifungal activity Saccharomyces cerevisiae ATCC 9763 MIC” value in series [2] is 8 µg/mL. For the same molecule, the “Antifungal activity Candida tropicalis KKP 334 MIC” value in series [3] came out at 8 µg/mL. Moreover, in series [4], the “Antifungal activity Candida albicans ATCC 10231 IC50” value turned out to be 6.32 µg/mL and the “Antifungal activity Candida albicans ATCC 10231 MIC” value was 8 µg/mL.
